Results as given in the supplement of paper PMC10307832.

Columns and labels:
Experiment in all cases: relative viability (nuclei count vs DMSO), 5 days (fraction); higher = more cells survive
[1] = compound: O=C(CCCCCCNC(=O)c1cnc(N(c2ccccc2)c2ccccc2)nc1)NO [Ricolinostat] + CS(=O)(=O)CCNCc1ccc(-c2ccc3ncnc(Nc4ccc(OCc5cccc(F)c5)c(Cl)c4)c3c2)o1 [Lapatinib] (partner 2 µM)
How it was run: (§1)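 A single step with final 0.05% Triton X-100, 1% formaldehyde and 1 ug/ml Hoechst fixed the cells and stained nuclei 5 days after treatment. Lung cancer cell lines in 1536-well plates had been treated by pin tool the day after seeding with one drug alone or a fixed anchor-drug dose plus five library-drug doses (not always all listed) in √10 steps, and nuclei were counted on 4× images. Relative viability is the ratio of nuclei in treated wells to nuclei in vehicle wells, taken as the median of duplicate plates.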

[2] = compound: O=C(CCCCCCNC(=O)c1cnc(N(c2ccccc2)c2ccccc2)nc1)NO [Ricolinostat] + CC(C)C[C@H](NC(=O)[C@H](Cc1ccccc1)NC(=O)c1cnccn1)B(O)O [Bortezomib] (partner 0.002 µM)
How it was run: as §1

[3] = compound: CC1=CN2C(=O)C=C(N=C2C(=C1)C(C)NC3=CC=CC=C3)N4CCOCC4 [TGX 221] + Nc1nc2[nH]cc(CCc3ccc(C(=O)N[C@@H](CCC(=O)O)C(=O)O)cc3)c2c(=O)[nH]1 [Pemetrexed] (partner 0.2 µM)
How it was run: as §1

[4] = compound: O=C(CCCCCCNC(=O)c1cnc(N(c2ccccc2)c2ccccc2)nc1)NO [Ricolinostat] + Cc1cc(Nc2cc(N3CCN(C)CC3)nc(Sc3ccc(NC(=O)C4CC4)cc3)n2)n[nH]1 [Tozasertib] (partner 0.1 µM)
How it was run: as §1

Row | Cell Line | relative viability ([1]; first compound 0.08 µM) | relative viability ([1]; first compound 0.8 µM) | relative viability ([1]; first compound 2.53 µM) | relative viability ([2]; first compound 0.08 µM) | relative viability ([2]; first compound 0.8 µM) | relative viability ([2]; first compound 2.53 µM) | relative viability ([3]; first compound 0.08 µM) | relative viability ([3]; first compound 0.253 µM) | relative viability ([3]; first compound 0.8 µM) | relative viability ([3]; first compound 2.53 µM) | relative viability ([3]; first compound 8 µM) | relative viability ([4]; first compound 0.08 µM) | relative viability ([4]; first compound 0.253 µM) | relative viability ([4]; first compound 0.8 µM) | relative viability ([4]; first compound 2.53 µM) | relative viability ([1]; first compound 0.253 µM) | relative viability ([2]; first compound 0.253 µM)
1 | NCI-H1755 | 0.812 | 1.02 | 1.01 | 0.929 | 0.978 | 0.926 | 0.461 | 0.344 | 0.38 | 0.361 | 0.39 | 0.581 | 0.565 | 0.525 | 0.53 | – | –
2 | NCI-H1915 | 0.965 | 0.858 | 0.965 | 0.932 | 0.903 | 0.98 | 0.459 | 0.437 | 0.526 | 0.452 | 0.516 | 0.438 | 0.455 | 0.385 | 0.377 | 0.958 | 1.01
3 | NCI-H1975 | 0.878 | – | 0.664 | 0.406 | – | 0.233 | 0.306 | 0.26 | 0.293 | 0.297 | 0.273 | 0.83 | 0.708 | 0.604 | 0.59 | 0.914 | 0.357
4 | NCI-H1993 | 0.714 | 0.796 | 0.91 | 0.861 | 1.25 | 1.15 | 0.567 | 0.545 | 0.632 | 0.604 | 0.246 | – | 0.644 | 0.561 | 0.536 | 0.867 | 1
5 | NCI-H2009 | 0.812 | 0.832 | 0.74 | 0.834 | 0.93 | 0.763 | 0.943 | 1.06 | 1.08 | 1.1 | 0.938 | 0.745 | 0.686 | 0.68 | 0.607 | 0.887 | 0.979
6 | NCI-H2023 | 0.552 | 0.792 | 0.487 | 0.822 | 0.88 | 0.839 | 0.263 | 0.205 | 0.223 | 0.214 | 0.189 | – | 0.373 | 0.244 | 0.188 | 0.91 | 1.09
7 | NCI-H2085 | – | 0.715 | 0.573 | – | 0.969 | 0.765 | 0.932 | 0.759 | 0.615 | 0.523 | 0.422 | 0.688 | 0.731 | 0.613 | 0.523 | 0.679 | 1.15
8 | NCI-H2087 | 1.07 | 0.921 | 0.698 | 0.895 | 0.806 | 0.456 | 0.745 | 0.637 | 0.582 | 0.663 | 0.672 | – | 0.253 | 0.164 | 0.168 | 1.05 | 0.54
9 | NCI-H2126 | 0.615 | 0.719 | 0.801 | 0.95 | 1.1 | 1.02 | 0.693 | 0.574 | 0.673 | 0.615 | 0.656 | – | 0.823 | 0.739 | 0.495 | 0.751 | 1.07
10 | NCI-H2228 | 0.876 | 1.11 | 0.574 | 0.789 | 0.907 | 0.594 | 0.357 | 0.369 | 0.356 | 0.313 | 0.332 | 0.37 | 0.235 | 0.237 | 0.141 | 0.88 | 0.807
11 | NCI-H2347 | 0.849 | 0.874 | 0.82 | – | 0.979 | 0.713 | 0.467 | 0.414 | 0.445 | 0.386 | 0.389 | 0.419 | 0.47 | 0.513 | 0.425 | 0.908 | 1.1
12 | NCI-H2405 | 0.858 | 1.08 | 1.04 | 0.816 | 0.932 | 0.992 | 1.01 | 1.05 | 1.07 | 0.952 | 0.885 | 0.693 | 0.752 | 0.677 | 0.731 | 1.04 | 0.952
13 | NCI-H3122 | 0.972 | 1.07 | 0.973 | 0.914 | 0.987 | 1.09 | 0.198 | 0.203 | 0.201 | 0.206 | 0.207 | – | 0.361 | 0.382 | 0.295 | 1.01 | 1.08
14 | PC-3 [JPC-3] | 0.351 | 0.414 | 0.475 | 0.832 | 0.791 | 0.829 | 1.08 | 1.09 | 1.11 | 1.04 | 1 | – | 0.84 | 0.851 | 0.771 | 0.466 | 0.791
15 | PC-14 | 0.243 | 0.263 | 0.172 | 0.812 | 0.872 | 0.692 | 0.135 | 0.125 | 0.134 | 0.145 | 0.118 | 0.61 | 0.553 | 0.527 | 0.418 | 0.291 | 0.844
16 | RERF-LC-KJ | 0.828 | 0.858 | 0.808 | 1.15 | 1.11 | 1.02 | 0.479 | 0.471 | 0.484 | 0.465 | 0.475 | 0.531 | 0.406 | 0.324 | 0.265 | 0.864 | 1
17 | SK-LU-1 | 0.75 | 0.854 | 0.653 | 0.895 | 0.916 | 0.46 | 0.923 | 0.89 | 0.907 | 0.898 | 0.838 | 0.321 | 0.273 | 0.285 | 0.194 | 0.782 | 1.04
18 | SW 1573 | 0.941 | 1.12 | 1 | 0.834 | 1.06 | 1.13 | 0.781 | 0.788 | 0.807 | 0.789 | 0.725 | 0.277 | 0.193 | 0.165 | 0.242 | 1.23 | 1.13
19 | UMC-11 | 0.699 | 0.906 | 0.314 | 0.571 | 0.678 | 0.372 | 0.677 | 0.717 | 0.788 | 0.815 | 0.823 | 0.221 | 0.192 | 0.159 | 0.165 | 0.944 | 0.795
